# Measurements published in PMC5133935, “Hydrostatin-TL1, an Anti-Inflammatory Active Peptide from the Venom Gland of Hydrophis cyanocinctus in the South China Sea” (International Journal of Molecular Sciences, 2016).
# “Also recorded” adds a separate entry of the source. No end group written: not given here.
# Key:
# TNF-α/TNFR1 = assay: Competitive ELISA, inhibition of TNF-α binding to TNFR1; set-up: species or system human; conditions: hrTNF-α 20 ng/mL, 1 h, 37 °C, n = 3
# From the text: We investigated whether H-TL1 has an inhibitory effect on the binding of TNF-α to TNFRs by using ELISA. In this assay, a fixed amount of TNF-α was mixed with different concentrations of H-TL1 and applied to the TNFR-coated ELISA plates. […] SPR analysis was used to further confirm the inhibitory effects of H-TL1 on the binding of TNF-α to TNFR1. As expected, TNF-α was strongly bound with the chip-immobilized TNFR1.
# The T7Select1-2b display vector, T7 select primers, blocking reagent, and elution buffer were purchased from Novagen (Merck, Kenilworth, NJ, USA). […] DSS (36–50 kDa) was bought from MP Biomedicals (Solon, OH, USA). MTT, actinomycin D, and LPS were purchased from Sigma-Aldrich (St. Louis, MO, USA).
# ELISA plates were coated with sTNFR1 (100 ng/well in 100 μL of 100 mM sodium carbonate, pH 9.6) for 20 h at 4 °C, followed by blocking with phosphate buffered saline (PBS) containing 0.2% Tween-20 (PBST) and 1% BSA for 1 h at 37 °C. Different concentrations of H-TL1 (0–1 μM) were mixed with hrTNF-α (20 ng/mL) in PBS containing 1% BSA, and 100 μL/well was placed in the ELISA plates and incubated for 1 h at 37 °C. After washing with PBST, an HRP-labeled monoclonal antibody against TNF-α was added, followed by incubation at 37 °C for 1 h. The plates were then washed, incubated with o-phenylenediamine, and the absorbance was subsequently measured at 450 nm.
# TNF-α/TNFR2 = assay: Competitive ELISA, inhibition of TNF-α binding to TNFR2; set-up: species or system human; conditions: sTNFR2-coated plate, H-TL1 0–1 μM, n = 3
# [1] = system: HEK-293 cells, TNF-α-mediated NF-κB and MAPKs signaling; assay: Western blot, TNF-α-induced phosphorylation in HEK-293 cells; type: cell-based, human; conditions: TNF-α 20 ng/mL, 10 min
# From the text: The NF-κB and MAPKs pathways are key signaling pathways of TNF-α-mediated inflammation. Therefore, we analyzed the mechanisms underlying H-TL1-induced inhibition of TNF-α-mediated inflammation by Western blotting in HEK-293 cells. […] To identify the specific effects of H-TL1 on TNF-α downstream signaling, we induced IL-1β as a potent activator of NF-κB that is specific to that pathway.
# The H. cyanocinctus specimens were captured during September 2005 in the South China Sea near Guangdong Province, People’s Republic of China. After collection, the snakes were killed, and the venom glands were isolated and immediately frozen in liquid nitrogen until use. HEK-293 human embryonic kidney and L929 mouse fibroblast cell lines were obtained from ATCC and cultured in Dulbecco’s modified Eagle’s medium (DMEM, Sigma-Aldrich, St. Louis, MO, USA) containing 10% (v/v) heat-inactivated fetal bovine serum (FBS, Gibco, BRL, Grand Island, NY, USA) at 37 °C in an atmosphere of 5% CO2. The BLT5403 E. coli strain (used as the phage host strain) was from Novagen (Merck) and was cultured at 37 °C for propagation. The specific pathogen-free (SPF) male BALB/c and C57BL/6 mice (both 6–8 weeks old), weighing 20 ± 2 g were purchased from Shanghai SLAC Laboratory Animal Co., Ltd. (Shanghai, China). The mice were housed in animal facilities with 50% humidity under a 12-h light-dark cycle, fed a standard pellet diet, and provided with tap water ad libitum. The animal experimental protocols in this research, including venom gland isolation and the mouse study, were approved by the Animal Care and Use Committee of the Second Military Medical University.
# (§1) For Western blotting, the cell or tissue specimen extracts were resolved in a 10% SDS-PAGE gel, and then the separated proteins were transferred to a nitrocellulose filter membrane. The antigens were detected by using specific antibodies against total and phosphorylated IκB, p38, ERK, and JNK followed by incubation with the respective secondary antibodies. GAPDH was simultaneously detected as the control to compare the protein loading in each lane. The mouse monoclonal anti-IκB, mouse monoclonal anti-p-IκB (Ser32/36), rabbit monoclonal anti-ERK, and rabbit monoclonal anti-p-ERK (Thr202/Tyr204) antibodies were from Cell Signaling Technologies (Beverly, MA, USA). The mouse polyclonal anti-p-p38 (Thr180/Tyr182), rabbit polyclonal anti-p38, rabbit monoclonal anti-p-JNK (Thr183/Tyr185), and mouse monoclonal anti-JNK antibodies were from Thermo Fisher Scientific (Rockford, IL, USA). The rabbit monoclonal anti-GAPDH antibody was from Santa Cruz Biotechnology (Santa Cruz, CA, USA), and the fluorescent-labeled secondary antibodies were from Li-COR Biosciences (Lincoln, NE, USA).
# [2] = system: NF-κB and MAPK activation in colonic tissue of DSS mice; assay: Western blot of colonic tissue in DSS-induced colitis; type: in vivo, mouse; conditions: H-TL1 vs. vehicle, p-ERK (Thr202/Tyr204), p-JNK (Thr183/Tyr185), p-IκB (Ser32/36)
# Protocol: as §1
# To induce colitis, 6–8 week old male BALB/c mice were administered 2.5% DSS solution in their drinking water for 7–8 consecutive days, ad libitum. […] DAI was monitored during the entire experiment and was assessed according to the method described in Table 1.
substance,measurement,setting,value
ATSKPSLKC-OH [H-TL1],inhibition of the binding of TNF-α with TNFR1,"TNF-α/TNFR1; H-TL1 1 μM, plate coated with sTNFR1 100 ng/well, PBS + 1% BSA, absorbance 450 nm",~60%
same,"inhibition of TNF-α/TNFR1 binding, concentration dependence",TNF-α/TNFR1; H-TL1 0.1–1000 nM,obviously inhibits the binding of TNF-α with TNFR1; also recorded: inhibited the binding of TNF-α with TNFR1 in a concentration-dependent manner
same,"inhibition of TNF-α/TNFR2 binding, in words",TNF-α/TNFR2,had little impact on TNF-α/TNFR2 interactions; also recorded: the percent inhibition had no apparent linear relation to the H-TL1 concentration
same,effect on the binding of TNF-α with TNFR2 (inhibition),TNF-α/TNFR2; hrTNF-α 20 ng/mL,approximately 20%
same,concentration inhibiting TNF-α-mediated ERK (Thr202/Tyr204) phosphorylation,[1],0.8 to 1.6 µM
same,concentration inhibiting TNF-α-mediated p38 (Thr180/Tyr182) phosphorylation,[1],0.8 to 1.6 µM
same,concentration suppressing TNF-α-mediated IκB (Ser32/36) phosphorylation,[1],0.4 to 1.6 µM
same,concentration suppressing TNF-α-mediated JNK (Thr183/Tyr185) phosphorylation,[1],0.4 to 1.6 µM
same,"activation (phosphorylation) of JNK, ERK, and IκB in colonic tissue",[2],"JNK, ERK, and IκB were activated; however, this effect was inhibited by H-TL1 treatment"
